Patent publication US4737510A, “Bioactive metabolites from the caribbean sponge agelas coniferin” (priority 1986, dated 1988)
Where “and” joins values, the source holds several entries; their conditions need not be identical. Equal entries are not always repeated. Where two headings read alike, the source gives them in different places.

Assays:
[1] = system: Monkey Kidney Cells (CV-1); test: Cytotoxicity to monkey kidney cells (CV-1) determined by Dr. R. G. Hughes, Jr.; details: 8 or less essentially indicates noncytotoxicity
[2] = system: Herpes Simplex Virus type 1 (HSV-1); test: Antiviral activity against HSV-1 determined by Dr. R. G. Hughes, Jr.;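 further: grades: +++ strong ++ moderate + light ± questionable - negative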; assay type: cell-based
Bacillus subtilis = test: Disc diffusion antimicrobial assay, Bacillus subtilis; assay type: cell-based; details: Bacillus subtilis, 6.5 mm disc, read-out: diameter of the clear zone of inhibition; for zone of inhibition at 10 µg/disc: 10 μg/disk; for zone of inhibition at 50 µg/disc: 50 μg/disk; for zone of inhibition at 100 µg/disc: 100 μg/disk
Escherichia coli = test: Disc diffusion antimicrobial assay, Escherichia coli; assay type: cell-based; details: for zone of inhibition at 10 µg/disc / zone of inhibition at 50 µg/disc / zone of inhibition at 100 µg/disc: Escherichia coli, 6.5 mm disc, read-out: diameter of the clear zone of inhibition; for zone of inhibition at 50 µg/disc: 50 μg/disk; for zone of inhibition at 100 µg/disc: 100 μg/disk
[3] = system: vesicular stomatitis virus (VSV); test: microbe, parasite or virus in culture; assay type: cell-based; details: Vesicular stomatitis virus, in Primates
[4] = system: Herpes simplex virus, type I (HSV-1); test: microbe, parasite or virus in culture; assay type: cell-based; details: for zone of inhibition at 20 µg/disc / zone of inhibition at 50 µg/disc / zone of inhibition at 100 µg/disc / zone of inhibition at 200 µg/disc: Human alphaherpesvirus 1, in Primates
E. coli strain BR339 = assay type: cell-based
[5] = Water solubility (in words); assay type: physicochemical; details: relative to 1a-6a
[6] = system: Balanus amphitrite amphitrite; test: Barnacle settlement assay, facilitation; assay type: in vivo, Balanus amphitrite amphitrite (barnacle); details: Amphibalanus amphitrite
[7] = Stability of isolated solids; assay type: physicochemical; details: diacetate salts, amorphous solids
[8] = read-out: antiviral activity, VSV, ++ scale
[9] = read-out: antiviral activity, VSV, zone diameter
[10] = read-out: antiviral activity, HSV-1, ++ scale
[11] = read-out: antiviral activity, HSV-1, zone diameter

SMILES | cytotoxicity, zone diameter ([1]; 25 μg/disk) [mm] | cytotoxicity, zone diameter ([1]; 50 μg/disk) [mm] | cytotoxicity, zone diameter ([1]; 100 μg/disk) [mm] | HSV-1 activity ([2]; 25 μg/disk) | HSV-1 activity ([2]; 50 μg/disk) | HSV-1 activity ([2]; 100 μg/disk) | zone of inhibition at 10 µg/disc (Bacillus subtilis) [mm] | zone of inhibition at 50 µg/disc (Bacillus subtilis) [mm] | zone of inhibition at 100 µg/disc (Bacillus subtilis) [mm] | zone of inhibition at 10 µg/disc (Escherichia coli; 10 μg/disk) [mm] | zone of inhibition at 50 µg/disc (Escherichia coli) [mm] | zone of inhibition at 100 µg/disc (Escherichia coli) [mm] | zone of inhibition at 20 µg/disc [3, 8] [mm] | zone of inhibition at 50 µg/disc [3, 8] [mm] | zone of inhibition at 100 µg/disc [3, 8] [mm] | zone of inhibition at 200 µg/disc [3, 8] [mm] | zone of inhibition at 20 µg/disc [3, 9] [mm] | zone of inhibition at 50 µg/disc [3, 9] [mm] | zone of inhibition at 100 µg/disc [3, 9] [mm] | zone of inhibition at 20 µg/disc [4, 10] [mm] | also measured
Nc1ncc(C2c3nc(N)[nH]c3CC(CNC(=O)c3cc(Br)c(Br)[nH]3)C2CNC(=O)c2cc(Br)c[nH]2)[nH]1 (stereo not drawn) [Compound 5a, Bromoageliferin Acetate] | 5 | 5 | 7 | - | ± | ++ | 10 | 12 | 12 | 7 | 8 | 8 | < 7 | < 7 | 8 to 10 | 8 to 10 | 0 | 0 | 10 | 8 to 10 | activity against Escherichia coli (Escherichia coli; 10 μg/disk): active; zone of inhibition at 200 µg/disc [3, 9]: 10 mm; zone of inhibition at 50 µg/disc [4, 10]: 11 to 15 mm; zone of inhibition at 100 µg/disc [4, 10]: 11 to 15 mm; zone of inhibition at 200 µg/disc [4, 10]: 11 to 15 mm; zone of inhibition at 20 µg/disc [4, 11]: 9 mm; zone of inhibition at 50 µg/disc [4, 11]: 11 mm; zone of inhibition at 100 µg/disc [4, 11]: 11 mm; zone of inhibition at 200 µg/disc [4, 11]: 13 mm; BIA activity, numerical color intensity scale 0-10 (E. coli strain BR339): 3 and 2
NC1=NC(=O)C(C2C(CNC(=O)c3cc(Br)c[nH]3)C(CNC(=O)c3cc(Br)c[nH]3)C2c2cnc(N)[nH]2)N1 (stereo not drawn) [Compound 8a, Oxysceptrin Acetate] | 5 | 5 | 6 | - | - | + | 0 | 14 | 15 | 0 | 8 | 10 | < 7 | < 7 | 8 to 10 | 8 to 10 | 0 | 0 | 8 | < 7 | water solubility [5]: more water soluble; EC50 [6]: 0.017 mg/L; stability [7]: stable; antiviral zone appearance [4]: diffuse zones; zone of inhibition at 50 µg/disc [4, 10]: 8 to 10 mm; zone of inhibition at 100 µg/disc [4, 10]: 11 to 15 mm; zone of inhibition at 200 µg/disc [4, 10]: 11 to 15 mm; zone of inhibition at 20 µg/disc [4, 11]: 0 mm; zone of inhibition at 100 µg/disc [4, 11]: 11 mm; zone of inhibition at 200 µg/disc [4, 11]: 12 mm; BIA activity (E. coli strain BR339): inducers; BIA activity, numerical color intensity scale 0-10 (E. coli strain BR339): 9 and 6; BIA zone appearance (E. coli strain BR339): more diffuse zone
